The results in this text go back to patent US20260015358A1, “BICYCLIC DERIVATIVES, COMPOSITIONS AND USES THEREOF” (Danatlas Pharmaceuticals Co., Ltd., priority 2023, published 2026).

The target of assay [1] is T1, WRN [UniPro: Q14191 (WRN_HUMAN), N500-C946] (Homo sapiens (Human), UniProt Q14191). Put plainly: WRN unwinding assay (FORKF DNA, fluorescence). The assay is classed as biochemical. As to conditions: Table 14.
In assay [2] the target is T1, WRN [UniPro: Q14191 (WRN_HUMAN), N500-C946]. The assay can be described thus: WRN ATPase assay (ADP-Glo). Particulars: WRN enzymatic activity assay. The assay is classed as biochemical. On the technique in general: In ADP-Glo the light output rises with the ADP produced.

Bounds are passed on as bounds.

T1 sequence (Q14191 500-946): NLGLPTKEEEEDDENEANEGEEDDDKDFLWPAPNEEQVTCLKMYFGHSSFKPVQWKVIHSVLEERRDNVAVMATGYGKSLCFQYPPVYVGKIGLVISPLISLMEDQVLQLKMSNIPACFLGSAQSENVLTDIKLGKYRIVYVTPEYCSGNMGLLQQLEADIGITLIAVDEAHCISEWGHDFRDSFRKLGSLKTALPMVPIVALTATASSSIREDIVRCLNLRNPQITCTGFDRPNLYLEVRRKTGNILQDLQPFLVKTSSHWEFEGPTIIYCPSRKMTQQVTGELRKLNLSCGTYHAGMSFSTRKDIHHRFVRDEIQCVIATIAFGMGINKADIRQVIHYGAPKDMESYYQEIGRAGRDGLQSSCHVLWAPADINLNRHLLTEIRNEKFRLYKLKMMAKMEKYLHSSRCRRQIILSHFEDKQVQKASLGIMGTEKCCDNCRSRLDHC

For `CCc1c(N2CCN(C(=O)CNC(=O)Nc3ccccc3F)CC2)c(=O)n2nc(C3=CCOCC3)nc2n1CC(=O)Nc1ccc(C(F)(F)F)cc1Cl` [Example 180, N-(2-Chloro-4-(trifluoromethyl)phenyl)-2-(2-(3,6-dihydro-2H-pyran-4-yl)-5-ethyl-6-(4-(((2-fluorophenyl)carbamoyl)glycyl)piperazin-1-yl)-7-oxo-[1,2,4]triazolo[1,5-a]pyrimidin-4(7H)-yl)acetamide], the IC50 in assay [1] and in assay [2] was less than 0.1 µM in each case.

`CCc1c(N2CCN(C(=O)CNC(=O)Nc3ccccc3Cl)CC2)c(=O)n2nc(C3=CCOCC3)nc2n1CC(=O)Nc1ccc(C(F)(F)F)cc1Cl` [Example 181, N-(2-Chloro-4-(trifluoromethyl)phenyl)-2-(6-(4-(((2-chlorophenyl)carbamoyl)glycyl)piperazin-1-yl)-2-(3,6-dihydro-2H-pyran-4-yl)-5-ethyl-7-oxo-[1,2,4]triazolo[1,5-a]pyrimidin-4(7H)-yl)acetamide]: the IC50 in assay [1] and in assay [2] was less than 0.1 µM in each case.

As to `CCc1c(N2CCN(C(=O)CNC(=O)N3CCc4ccccc43)CC2)c(=O)n2nc(C3=CCOCC3)nc2n1CC(=O)Nc1ccc(C(F)(F)F)cc1Cl` [Example 182, N-(2-(4-(4-(2-((2-Chloro-4-(trifluoromethyl)phenyl)amino)-2-oxoethyl)-2-(3,6-dihydro-2H-pyran-4-yl)-5-ethyl-7-oxo-4,7-dihydro-[1,2,4]triazolo[1,5-a]pyrimidin-6-yl)piperazin-1-yl)-2-oxoethyl) indoline-1-carboxamide], the IC50 in assay [1] and in assay [2] was less than 0.1 µM each time.

Take `CCc1c(N2CCN(C(=O)CNC(=O)NCc3ccccc3)CC2)c(=O)n2nc(C3=CCOCC3)nc2n1CC(=O)Nc1ccc(C(F)(F)F)cc1Cl` [Example 183, 2-(6-(4-((Benzylcarbamoyl)glycyl)piperazin-1-yl)-2-(3,6-dihydro-2H-pyran-4-yl)-5-ethyl-7-oxo-[1,2,4]triazolo[1,5-a]pyrimidin-4(7H)-yl)-N-(2-chloro-4-(trifluoromethyl)phenyl)acetamide]: the IC50 in assay [1] and in assay [2] was less than 0.1 µM in each case.

As to `CCc1c(N2CCN(C(=O)CNC(=O)NC3CC3)CC2)c(=O)n2nc(C3=CCOCC3)nc2n1CC(=O)Nc1ccc(C(F)(F)F)cc1Cl` [Example 184, N-(2-Chloro-4-(trifluoromethyl)phenyl)-2-(6-(4-((cyclopropylcarbamoyl)glycyl)piperazin-1-yl)-2-(3,6-dihydro-2H-pyran-4-yl)-5-ethyl-7-oxo-[1,2,4]triazolo[1,5-a]pyrimidin-4(7H)-yl)acetamide], the IC50 in assay [1] and in assay [2] was less than 0.1 µM in each case.

Consider `CCc1c(N2CCN(C(=O)CNC(=O)N3Cc4ccccc4C3)CC2)c(=O)n2nc(C3=CCOCC3)nc2n1CC(=O)Nc1ccc(C(F)(F)F)cc1Cl` [Example 185, N-(2-(4-(4-(2-((2-Chloro-4-(trifluoromethyl)phenyl)amino)-2-oxoethyl)-2-(3,6-dihydro-2H-pyran-4-yl)-5-ethyl-7-oxo-4,7-dihydro-[1,2,4]triazolo[1,5-a]pyrimidin-6-yl)piperazin-1-yl)-2-oxoethyl)isoindoline-2-carboxamide], for which the IC50 in assay [1] and in assay [2] was less than 0.1 µM throughout.

Take `CCc1c(N2CCN(C(=O)CNC(=O)Nc3cc(F)ccc3F)CC2)c(=O)n2nc(C3=CCOCC3)nc2n1CC(=O)Nc1ccc(C(F)(F)F)cc1Cl` [Example 186, N-(2-Chloro-4-(trifluoromethyl)phenyl)-2-(6-(4-(((2,5-difluorophenyl)carbamoyl)glycyl)piperazin-1-yl)-2-(3,6-dihydro-2H-pyran-4-yl)-5-ethyl-7-oxo-[1,2,4]triazolo[1,5-a]pyrimidin-4(7H)-yl)acetamide]: the IC50 in assay [1] and in assay [2] was less than 0.1 µM throughout.

With `CCc1c(N2CCN(C(=O)CNC(=O)Nc3ccccc3C#N)CC2)c(=O)n2nc(C3=CCOCC3)nc2n1CC(=O)Nc1ccc(C(F)(F)F)cc1Cl` [Example 187, N-(2-Chloro-4-(trifluoromethyl)phenyl)-2-(6-(4-(((2-cyanophenyl)carbamoyl)glycyl)piperazin-1-yl)-2-(3,6-dihydro-2H-pyran-4-yl)-5-ethyl-7-oxo-[1,2,4]triazolo[1,5-a]pyrimidin-4(7H)-yl)acetamide], the IC50 in assay [1] and in assay [2] was less than 0.1 µM in each case.

On to `CCc1c(N2CCN(C(=O)CNC(=O)Nc3nccs3)CC2)c(=O)n2nc(C3=CCOCC3)nc2n1CC(=O)Nc1ccc(C(F)(F)F)cc1Cl` [Example 188, N-(2-Chloro-4-(trifluoromethyl)phenyl)-2-(2-(3,6-dihydro-2H-pyran-4-yl)-5-ethyl-7-oxo-6-(4-((thiazol-2-ylcarbamoyl)glycyl)piperazin-1-yl)-[1,2,4]triazolo[1,5-a]pyrimidin-4(7H)-yl)acetamide], for which the IC50 in assay [1] and in assay [2] was less than 0.1 µM throughout.

In the case of `CCc1c(N2CCN(C(=O)CNC(=O)N(C)Cc3ccccc3)CC2)c(=O)n2nc(C3=CCOCC3)nc2n1CC(=O)Nc1ccc(C(F)(F)F)cc1Cl` [Example 189, 2-(6-(4-((Benzyl(methyl)carbamoyl)glycyl)piperazin-1-yl)-2-(3,6-dihydro-2H-pyran-4-yl)-5-ethyl-7-oxo-[1,2,4]triazolo[1,5-a]pyrimidin-4(7H)-yl)-N-(2-chloro-4-(trifluoromethyl)phenyl)acetamide], the half-maximal inhibitory concentration (IC50) in assay [1] and in assay [2] was less than 0.1 µM in each case.

Regarding `CCc1c(N2CCN(C(=O)CNC(=O)NCC3CC3)CC2)c(=O)n2nc(C3=CCOCC3)nc2n1CC(=O)Nc1ccc(C(F)(F)F)cc1Cl` [Example 190, N-(2-Chloro-4-(trifluoromethyl)phenyl)-2-(6-(4-(((cyclopropylmethyl)carbamoyl)glycyl)piperazin-1-yl)-2-(3,6-dihydro-2H-pyran-4-yl)-5-ethyl-7-oxo-[1,2,4]triazolo[1,5-a]pyrimidin-4(7H)-yl)acetamide], the IC50 in assay [1] and in assay [2] was less than 0.1 µM throughout.

Turning to `CCc1c(N2CCN(C(=O)CNC(=O)NCc3ccccc3F)CC2)c(=O)n2nc(C3=CCOCC3)nc2n1CC(=O)Nc1ccc(C(F)(F)F)cc1Cl` [Example 191, N-(2-Chloro-4-(trifluoromethyl)phenyl)-2-(2-(3,6-dihydro-2H-pyran-4-yl)-5-ethyl-6-(4-(((2-fluorobenzyl)carbamoyl)glycyl)piperazin-1-yl)-7-oxo-[1,2,4]triazolo[1,5-a]pyrimidin-4(7H)-yl)acetamide], the IC50 in assay [1] and in assay [2] was less than 0.1 µM throughout.

For the compound `CCc1c(N2CCN(C(=O)CNC(=O)N3Cc4ccncc4C3)CC2)c(=O)n2nc(C3=CCOCC3)nc2n1CC(=O)Nc1ccc(C(F)(F)F)cc1Cl` [Example 192, N-(2-(4-(4-(2-((2-Chloro-4-(trifluoromethyl)phenyl)amino)-2-oxoethyl)-2-(3,6-dihydro-2H-pyran-4-yl)-5-ethyl-7-oxo-4,7-dihydro-[1,2,4]triazolo[1,5-a]pyrimidin-6-yl)piperazin-1-yl)-2-oxoethyl)-1,3-dihydro-2H-pyrrolo[3,4-c]pyridine-2-carboxamide], the IC50 in assay [1] and in assay [2] was less than 0.1 µM in each case.

Turning to `CCc1c(N2CCN(C(=O)CNC(=O)N3CCc4cccc(F)c43)CC2)c(=O)n2nc(C3=CCOCC3)nc2n1CC(=O)Nc1ccc(C(F)(F)F)cc1Cl` [Example 193, N-(2-(4-(4-(2-((2-Chloro-4-(trifluoromethyl)phenyl)amino)-2-oxoethyl)-2-(3,6-dihydro-2H-pyran-4-yl)-5-ethyl-7-oxo-4,7-dihydro-[1,2,4]triazolo[1,5-a]pyrimidin-6-yl)piperazin-1-yl)-2-oxoethyl)-7-fluoroindoline-1-carboxamide], the IC50 in assay [1] and in assay [2] was less than 0.1 µM each time.

For `CCc1c(N2CCN(S(=O)(=O)NC(=O)c3ccccc3)CC2)c(=O)n2nc(C3=CCOCC3)nc2n1CC(=O)Nc1ccc(C(F)(F)F)cc1Cl` [Example 194, N-((4-(4-(2-((2-Chloro-4-(trifluoromethyl)phenyl)amino)-2-oxoethyl)-2-(3,6-dihydro-2H-pyran-4-yl)-5-ethyl-7-oxo-4,7-dihydro-[1,2,4]triazolo[1,5-a]pyrimidin-6-yl)piperazin-1-yl)sulfonyl)benzamide], the IC50 in assay [1] and in assay [2] was less than 0.1 µM in each case.

Turning to `CCc1c(N2CCN(C(=O)c3ncc4ncsc4c3O)CC2)c(=O)n2nc(C3=CCOCC3)nc2n1CC(=O)Nc1ccc(C(F)(F)F)cc1Cl` [Example 195, N-(2-Chloro-4-(trifluoromethyl)phenyl)-2-(2-(3,6-dihydro-2H-pyran-4-yl)-5-ethyl-6-(4-(7-hydroxythiazolo[4,5-c]pyridine-6-carbonyl)piperazin-1-yl)-7-oxo-[1,2,4]triazolo[1,5-a]pyrimidin-4(7H)-yl)acetamide], the IC50 in assay [1] and in assay [2] was less than 0.1 µM throughout.

As to `CCc1c(N2CCN(C(=O)c3ncc4nc(Cl)sc4c3O)CC2)c(=O)n2nc(C3=CCOCC3)nc2n1CC(=O)Nc1ccc(C(F)(F)F)cc1Cl` [Example 196, N-(2-Chloro-4-(trifluoromethyl)phenyl)-2-(6-(4-(2-chloro-7-hydroxythiazolo[4,5-c]pyridine-6-carbonyl)piperazin-1-yl)-2-(3,6-dihydro-2H-pyran-4-yl)-5-ethyl-7-oxo-[1,2,4]triazolo[1,5-a]pyrimidin-4(7H)-yl)acetamide], the IC50 in assay [1] and in assay [2] was less than 0.1 µM in each case.

Take `CCc1c(N2CCN(C(=O)c3cc4sccc4[nH]c3=O)CC2)c(=O)n2nc(C3=CCOCC3)nc2n1CC(=O)Nc1ccc(C(F)(F)F)cc1Cl` [Example 197, N-(2-Chloro-4-(trifluoromethyl)phenyl)-2-(2-(3,6-dihydro-2H-pyran-4-yl)-5-ethyl-7-oxo-6-(4-(5-oxo-4,5-dihydrothieno[3,2-b]pyridine-6-carbonyl)piperazin-1-yl)-[1,2,4]triazolo[1,5-a]pyrimidin-4(7H)-yl)acetamide]: the IC50 in assay [1] and in assay [2] was less than 0.1 µM each time.

Broadly, the IC50 is the concentration at which inhibition is half-maximal.
